From patent US6358886B1, “6-Substituted 2,4-diamino-1,3,5-triazine derivatives having at least two asymmetrically substituted carbon atoms, the production thereof, and their use as herbicides” (Bayer Aktienegesellschaft, priority 1998, dated 2002)

Legend:
Type in all cases: in vivo
Maize = assay: Pre-emergence test/greenhouse; conditions: after three weeks, crop plant
Protocol: (§1) Solvent: 5 parts by weight of acetone
(§2) Emulsifier: 1 part by weight of alkylaryl polyglycol ether
(§3) To produce a suitable preparation of active compound, 1 part by weight of active compound is mixed with the stated amount of solvent, the stated amount of emulsifier is added and the concentrate is diluted with water to the desired concentration.
(§4) Seeds of the test plants are sown in normal soil. After about 24 hours, the soil is sprayed with the preparation of active compound such that the particular amounts of active compound desired are applied per unit area. The concentration of the spray liquor is chosen so that the particular amounts of active compound desired are applied in 1000 l of water/ha.
(§5) After three weeks, the degree of damage to the plants is rated in % damage in comparison to the development of the untreated control.
(§6) 0%=no effect (like untreated control)

Alopecurus = assay: Pre-emergence test/greenhouse; conditions: after three weeks
Protocol: as §1, §2, §3, §4, §5, §6

Setaria [1] = assay: Pre-emergence test/greenhouse; conditions: after three weeks
Protocol: as §1, §2, §3, §4, §5, §6

Abutilon [2] = assay: Pre-emergence test/greenhouse; conditions: after three weeks
Protocol: as §1, §2, §3, §4, §5, §6

Amaranthus [3] = assay: Pre-emergence test/greenhouse; conditions: after three weeks
Protocol: as §1, §2, §3, §4, §5, §6

Sinapis [4] = assay: Pre-emergence test/greenhouse; conditions: after three weeks
Protocol: as §1, §2, §3, §4, §5, §6

Galium = assay: Pre-emergence test/greenhouse; conditions: after three weeks
Protocol: as §1, §2, §3, §4, §5, §6

[5] = test system: crop plants, such as, for example, sunflowers; assay: Pre-emergence test, crop tolerance; conditions: result in words
Protocol: as §1, §2, §3, §4, §5, §6

weeds [6] = assay: Post-emergence test; conditions: result in words
Protocol: as §1, §2, §3
as §4, with “Test plants which have a height” for “Seeds”, “5-15 cm” for “the test plants”, “are” for “are sown in normal soil. After about 24 hours, the soil is”
as §5, §6

Setaria [7] = assay: Post-emergence test/greenhouse
Protocol: as §1, §2, §3
as §4, with “Test plants which have a height” for “Seeds”, “5-15 cm” for “the test plants”, “are” for “are sown in normal soil. After about 24 hours, the soil is”
as §5, §6

Abutilon [8] = assay: Post-emergence test/greenhouse; conditions: after three weeks
Protocol: as §1, §2, §3
as §4, with “Test plants which have a height” for “Seeds”, “5-15 cm” for “the test plants”, “are” for “are sown in normal soil. After about 24 hours, the soil is”
as §5, §6

Xanthium = assay: Post-emergence test/greenhouse; conditions: after three weeks
Protocol: as §1, §2, §3
as §4, with “Test plants which have a height” for “Seeds”, “5-15 cm” for “the test plants”, “are” for “are sown in normal soil. After about 24 hours, the soil is”
as §5, §6

Amaranthus [9] = assay: Post-emergence test/greenhouse; conditions: after three weeks
Protocol: as §1, §2, §3
as §4, with “Test plants which have a height” for “Seeds”, “5-15 cm” for “the test plants”, “are” for “are sown in normal soil. After about 24 hours, the soil is”
as §5, §6

weeds [10] = assay: Pre-emergence test; conditions: result in words
Protocol: as §1, §2, §3, §4, §5, §6

Sinapis [11] = assay: Post-emergence test/greenhouse; conditions: Table A-3, 1000 g of ai./ha, after three weeks
Protocol: as §1, §2, §3
as §4, with “Test plants which have a height” for “Seeds”, “5-15 cm” for “the test plants”, “are” for “are sown in normal soil. After about 24 hours, the soil is”
as §5, §6

[12] = Table A-3, 1000 g of ai./ha, after three weeks

For CCC(COc1cc(C)cc(C)c1)Nc1nc(N)nc([C@@H](C)O)n1 (mixture of isomers) [Example 2], which “degree of damage, Maize” value (Maize; Table B-2, 1000 g of ai./ha) is on record?
The value was 20%.

And the “degree of damage, Alopecurus” value (Alopecurus; Table B-2, 1000 g of ai./ha)?
Its value is 100%.

What about the “degree of damage, Setaria” value (Setaria [1]; Table B-2, 1000 g of ai./ha) of the same compound?
The value was 100%.

And the “degree of damage, Abutilon” value (Abutilon [2]; Table B-2, 1000 g of ai./ha)?
Its value is 100%.

What about the “degree of damage, Amaranthus” value (Amaranthus [3]; Table B-2, 1000 g of ai./ha) of the same compound?
Its value is 80%.

For CCC(=O)Nc1nc(NC(CC)COc2ccccc2)nc([C@H](C)Cl)n1 (mixture of isomers) [Example 9], which “degree of damage, Maize” value (Maize; Table B-2, 1000 g of ai./ha) is on record?
Its value is 20%.

What about the “degree of damage, Alopecurus” value (Alopecurus; Table B-2, 1000 g of ai./ha) of the same compound?
Its value is 95%.

What about the “degree of damage, Abutilon” value (Abutilon [2]; Table B-2, 1000 g of ai./ha) of the same compound?
The value was 95%.

What about the “degree of damage, Sinapis” value (Sinapis [4]; Table B-2, 1000 g of ai./ha) of the same compound?
The value was 100%.

What about the “degree of damage, Amaranthus” value (Amaranthus [3]; Table B-2, 1000 g of ai./ha) of the same compound?
The value was 100%.

Which “degree of damage, Maize” value (Maize; Table B-1, 1000 g of ai./ha) does the source give for CCC(COc1cc(C)cc(C)c1)Nc1nc(N)nc([C@@H](C)Cl)n1 (mixture of isomers) [Example 5] here?
The value was 20%.

And the “degree of damage, Setaria” value (Setaria [1]; Table B-1, 1000 g of ai./ha)?
The value was 100%.

And the “degree of damage, Galium” value (Galium; Table B-1, 1000 g of ai./ha)?
Its value is 100%.

What about the “degree of damage, Abutilon” value (Abutilon [2]; Table B-1, 1000 g of ai./ha) of the same compound?
Its value is 100%.

How did the “degree of damage, Alopecurus” value (Alopecurus; Table B-3, 1000 g of ai./ha) turn out when CCC(CCc1ccsc1)Nc1nc(N)nc([C@H](C)Cl)n1 (mixture of isomers) [Example 15] was run?
Its value is 100%.

And the “degree of damage, Setaria” value (Setaria [1]; Table B-3, 1000 g of ai./ha)?
Its value is 100%.

What about the “degree of damage, Galium” value (Galium; Table B-3, 1000 g of ai./ha) of the same compound?
The value was 100%.

What about the “degree of damage, Abutilon” value (Abutilon [2]; Table B-3, 1000 g of ai./ha) of the same compound?
Its value is 100%.

What about the “degree of damage, Sinapis” value (Sinapis [4]; Table B-3, 1000 g of ai./ha) of the same compound?
The value was 100%.

What about the “degree of damage, Amaranthus” value (Amaranthus [3]; Table B-3, 1000 g of ai./ha) of the same compound?
Its value is 100%.

How did the “tolerance by crop plants” value [5] turn out when C[C@H](Nc1nc(N)nc([C@@H](C)O)n1)c1ccccc1 [Example 1, 2-amino-4-(R)-(1-hydroxyethyl)-6-(S)-(1-phenyl-ethylamino)-1,3,5-triazine] was run?
The value was “tolerated well”.

What about the activity against weeds (weeds [6]) of the same compound?
The activity against weeds was “strong activity”.

What about the “degree of damage, Setaria” value (Setaria [7]; Table A-1, 1000 g of ai./ha, rated after three weeks, 0%=no effect, 100%=total destruction) of the same compound?
Its value is 90%.

And the “degree of damage, Abutilon” value (Abutilon [8]; Table A-1, 1000 g of ai./ha)?
Its value is 80%.

And the “degree of damage, Xanthium” value (Xanthium; Table A-1, 1000 g of ai./ha)?
Its value is 95%.

What about the “degree of damage, Amaranthus” value (Amaranthus [9]; Table A-1, 1000 g of ai./ha) of the same compound?
Its value is 100%.

And the activity against weeds (weeds [10])?
The activity against weeds was “strong activity”.

Which results are given for CCC(COc1cc(C)cc(C)c1)Nc1nc(N)nc([C@H](C)Cl)n1 (mixture of isomers) [Example 4]?
degree of damage, Alopecurus (Alopecurus; Table B-3, 2000 g of ai./ha): 100%; degree of damage, Setaria (Setaria [1]; Table B-3, 2000 g of ai./ha): 100%; degree of damage, Galium (Galium; Table B-3, 2000 g of ai./ha): 100%; degree of damage, Abutilon (Abutilon [2]; Table B-3, 2000 g of ai./ha): 100%; degree of damage, Sinapis (Sinapis [4]; Table B-3, 2000 g of ai./ha): 100%; degree of damage, Amaranthus (Amaranthus [3]; Table B-3, 2000 g of ai./ha): 95%

With C[C@H](Nc1nc(N)nc([C@@H](C)Cl)n1)c1ccccc1 [Example 18] as the compound, how does the activity against weeds (weeds [6]) read?
The activity against weeds was “strong activity”.

And the “degree of damage, Setaria” value (Setaria [7]; [12])?
The value was 100%.

And the “degree of damage, Abutilon” value (Abutilon [8]; Table A-3, 1000 g of ai./ha)?
Its value is 100%.

And the “degree of damage, Sinapis” value (Sinapis [11])?
The value was 100%.

What about the “degree of damage, Xanthium” value (Xanthium; Table A-3, 1000 g of ai./ha) of the same compound?
Its value is 100%.

And the “degree of damage, Amaranthus” value (Amaranthus [9]; Table A-3, 1000 g of ai./ha)?
Its value is 100%.

What does the source list for CC[C@H](Nc1nc(N)nc([C@@H](C)Cl)n1)c1ccccc1 [Example 23]?
activity against weeds (weeds [6]): strong activity; degree of damage, Setaria (Setaria [7]; [12]): 80%; degree of damage, Abutilon (Abutilon [8]; Table A-3, 1000 g of ai./ha): 95%; degree of damage, Sinapis (Sinapis [11]): 100%; degree of damage, Xanthium (Xanthium; Table A-3, 1000 g of ai./ha): 100%; degree of damage, Amaranthus (Amaranthus [9]; Table A-3, 1000 g of ai./ha): 100%

With CCC(COc1cc(C)cc(C)c1)Nc1nc(N)nc([C@H](C)O)n1 (mixture of isomers) [Example 3] as the compound, how does the “degree of damage, Setaria” value (Setaria [1]; Table B-3, 2000 g of ai./ha) read?
The value was 100%.

What about the “degree of damage, Galium” value (Galium; Table B-3, 2000 g of ai./ha) of the same compound?
Its value is 100%.

What about the “degree of damage, Abutilon” value (Abutilon [2]; Table B-3, 2000 g of ai./ha) of the same compound?
The value was 100%.

And the “degree of damage, Sinapis” value (Sinapis [4]; Table B-3, 2000 g of ai./ha)?
Its value is 100%.

And the “degree of damage, Amaranthus” value (Amaranthus [3]; Table B-3, 2000 g of ai./ha)?
Its value is 100%.

With CCC(COc1ccccc1)Nc1nc(N)nc([C@H](C)Cl)n1 (mixture of isomers) [Example 7] as the compound, how does the “degree of damage, Alopecurus” value (Alopecurus; Table B-3, 1000 g of ai./ha) read?
Its value is 95%.

And the “degree of damage, Setaria” value (Setaria [1]; Table B-3, 1000 g of ai./ha)?
Its value is 95%.

What about the “degree of damage, Galium” value (Galium; Table B-3, 1000 g of ai./ha) of the same compound?
The value was 100%.

And the “degree of damage, Abutilon” value (Abutilon [2]; Table B-3, 1000 g of ai./ha)?
The value was 100%.

What about the “degree of damage, Sinapis” value (Sinapis [4]; Table B-3, 1000 g of ai./ha) of the same compound?
Its value is 100%.

What about the “degree of damage, Amaranthus” value (Amaranthus [3]; Table B-3, 1000 g of ai./ha) of the same compound?
The value was 100%.

Which activity against weeds (weeds [6]) does the source give for CC[C@H](Nc1nc(N)nc([C@H](C)Cl)n1)c1ccccc1 [Example 22] here?
The activity against weeds was “strong activity”.

And the “degree of damage, Setaria” value (Setaria [7]; [12])?
Its value is 95%.

And the “degree of damage, Abutilon” value (Abutilon [8]; Table A-3, 1000 g of ai./ha)?
The value was 95%.

And the “degree of damage, Sinapis” value (Sinapis [11])?
Its value is 100%.

And the “degree of damage, Xanthium” value (Xanthium; Table A-3, 1000 g of ai./ha)?
The value was 100%.

What about the “degree of damage, Amaranthus” value (Amaranthus [9]; Table A-3, 1000 g of ai./ha) of the same compound?
The value was 100%.
